The text below walks through data of publication PMC8199124, “Design, Synthesis and In-Vitro Biological Evaluation of Antofine and Tylophorine Prodrugs as Hypoxia-Targeted Anticancer Agents” (Molecules, 2021).

Series [1] in a line: Solubility in PBS (pH 7.4). It is filed as physicochemical. The conditions noted are these: aqueous buffer, mean ± SE. The method, then: (§1) Water solubility, logD, and PAMPA-BBB were evaluated using the protocols we previously described.
A short description of series [2]: LogD determination. Conditions: mean ± SE. It is filed as physicochemical. The method, then:
as §1

Series [3] is described as follows: BBB-Parallel Artificial Membrane Permeability Assay (BBB-PAMPA). It is filed as in vitro ADME. The conditions noted are these: mean ± SE. The method, then: The physicochemical properties of the new compounds were evaluated (Table 1). […] Consequently, these derivatives lost their BBB penetrability, as predicted by the BBB-Parallel Artificial Membrane Permeability Assay (BBB-PAMPA), whereas their parent alkaloids had free passage through the BBB.
as §1
(In PAMPA a lipid-coated filter parts donor from acceptor wells.)

Series [4] in a line: Plasma protein binding (PPB). Format: in vitro ADME. Conditions: mean ± SE, read-out: PPB (% of Bound Compound) (converted). The method, then:
The physicochemical properties of the new compounds were evaluated (Table 1).

A short description of series [5]: in vitro. The conditions noted are these: male, Balb/c, pH 7.4; for half-life at 2 μM: microsomes. The method, then:
Mouse hepatic microsomes were isolated from pooled, perfused livers of Balb/c male mice according to the standard protocol. […] Microsomal incubations were carried out in 96-well plates in 5 aliquots of 40 μL each. […] Control incubations were performed by replacing the NADPH-cofactor system with PBS. The additional control incubations in PBS (with 3.3 mM MgCl2) without added microsomes were carried out in this study. […] The incubations were performed in duplicates. Five time points over 40 min had been analyzed. The reactions were stopped by adding 12 volumes of 90% acetonitrile-water to incubation aliquots, followed by protein sedimentation by centrifuging at 5500 rpm for 3 min. The supernatants were analyzed using LC-MS as mentioned above.

The subject of series [6] is HEK293. The series can be described thus: Cytotoxicity (MTT) under normoxia, HEK293. It is filed as cell-based. The conditions noted are these: Homo sapiens. The method, then:
(§2) The cytotoxicity of the compounds 5a–c and their parent alkaloids was evaluated by the 3-[4,5-dimethylthiazole-2-yl]-2,5-diphenyltetrazolium bromide (MTT) assay against 5 cancerous and 2 non-cancerous cell lines (Table 4).
(§3) The eight cell lines HEK293 (Human embryonic kidney 293), CHO-K1 (Chinese hamster ovary K1), MCF-7 cells (Human breast adenocarcinoma), HCT116 (human colorectal carcinoma), RKO (Human rectal carcinoma), SW480 (human colorectal carcinoma), H460 (Human lung cancer), and MRC5 (Normal human foetal lung fibroblast), were obtained from the ATCC. The cell lines were routinely grown in alpha minimum essential medium (α-MEM) containing 5% foetal calf serum (FCS). The appropriate number of cells (HCT116 = 400 cells/well, H460 cells = 600 cells/well) were seeded into 96-well plates under normoxic or hypoxic conditions. Cells were plated in 100 µL α-MEM containing 10% FCS, 10mM D-Glucose and 0.2mM 2′-deoxycytidine. After incubation for 2 h, the compounds were added at the appropriate concentration and incubated for further 4 h. The cells were then washed three times with drug-free α-MEM (containing 5% FCS and pen/strep). The plates were then incubated for 5 days under normoxic conditions. The cells were stained with sulphorhodamine B to measure total cells. The IC50 was determined by interpolation as the compound concentration reducing staining to 50% of controls on the same plate.

In series [7] the test system is CHO-K1. Kind of series: Cytotoxicity (MTT) under normoxia, CHO-K1. It is filed as cell-based, Chinese hamster. The conditions noted are these: Cricetulus griseus. The method, then: as §2, §3
Series [8] concerns MCF7. Kind of series: Cytotoxicity (MTT) under normoxia, MCF7. The conditions noted are these: Homo sapiens. Format: cell-based. The method, then:
as §2, §3

The subject of series [9] is HCT116. The series can be described thus: Cytotoxicity (MTT) under normoxia, HCT116. Conditions: Homo sapiens. Format: cell-based. The method, then: as §2, §3
The test system of series [10] is RKO. Kind of series: Cytotoxicity (MTT) under normoxia, RKO. It is filed as cell-based. Conditions: Homo sapiens, read-out: IC50 RKO. The method, then: as §2, §3
The subject of series [11] is SW480. Kind of series: Cytotoxicity (MTT) under normoxia, SW480. Format: cell-based. Conditions: Homo sapiens. The method, then: as §2, §3
In series [12] the test system is MRC5. The series can be described thus: Cytotoxicity (MTT) under normoxia, MRC5. It is filed as cell-based. Conditions: Homo sapiens. The method, then:
as §2, §3

The subject of series [13] is HCT116. Kind of series: Cytotoxicity under normoxia and hypoxia (anaerobic chamber, sulphorhodamine B), HCT116. It is filed as cell-based, human. Conditions: for IC50: 4 h exposure, 5 days growth. The method, then: (§4) We also checked if the designed prodrugs were able to liberate the active alkaloids in hypoxic tumors by testing them under hypoxic conditions using an anaerobic chamber. The three prodrugs 5a–c and their parent alkaloids as well as the reference compounds PR-104A, the parent alcohol form of the phosphate pre-prodrug PR-104, and evofosfamide were tested using the HCT116 and H460 cell lines under both normoxic and hypoxic conditions (Table 5). The prodrugs were much less cytotoxic than the parent drugs, in agreement with our observations using the other cell lines described above (Figure 6).
(§5) The extent to which a prodrug is deactivated relative to its parent drug under normoxic conditions is defined as the Deactivation Ratio (DR). The DR can be simply calculated as DR = IC50 (prodrug)/IC50 (parent drug).
(§6) The efficacy of prodrug activation under hypoxic conditions can be expressed by the Hypoxia Cytotoxicity Ratio (HCR), which can be calculated for a given prodrug as: HCR = normoxic IC50/hypoxic IC50.
as §3

In series [14] the test system is H460. The series can be described thus: Cytotoxicity under normoxia and hypoxia (anaerobic chamber, sulphorhodamine B), H460. It is filed as cell-based, human. The conditions noted are these: for IC50: 4 h exposure, 5 days growth. The method, then:
as §4, §5, §6, §3

Where [15] appears, read: Homo sapiens, HCT-116, HCT116, hypoxia, read-out: IC50 (Hypoxia).
Where [16] appears, read: Homo sapiens, HCT-116, HCT116, normoxia, read-out: IC50 (Normoxia).
Setting [17] is: Homo sapiens, NCI-H460, H460, hypoxia, read-out: IC50 (Hypoxia).
The mark [18] stands for this setting: Homo sapiens, NCI-H460, H460, normoxia, read-out: IC50 (Normoxia).
Setting [19] is: HCT116, HCR = normoxic IC50/hypoxic IC50.
Setting [20] is: H460, HCR = normoxic IC50/hypoxic IC50.

The structures appear in SMILES notation. Values after ≈ are worked out from the molar mass of the structure shown. Read-outs that look alike come from different tables or passages of the source.

For the compound `COc1ccc2c3c(c4cc(OC)c(OC)cc4c2c1)C[C@H]1CCCN1C3` [(R)-Antofine, (R)-antofine], in [1], the solubility was determined as 27 ± 2 µM (≈ 9.81 µg/mL). Further, the logD in [2] turned out to be 3.68 ± 0.03. In series [3], the “Permeability (Papp)” value is −5.6 ± 0.58 Log [10^−6 cm/s]. The fraction unbound in [4] is 0.019. In addition, the “Kel (elimination rate constant)” value in series [5] (mouse, 2 μM) was 0.002 ± 0 min⁻¹. This compound showed a half-life at 2 μM in series [5] (mouse) of 1.12 ± 0.035 h. Also, the half-inhibitory concentration (IC50) worked out at 30 ± 43 nM in [6] (HEK293, normoxia, read-out: IC50 HEK293); 33 ± 50 nM in series [7] (CHO-K1, normoxia, read-out: IC50 CHO-K1); 2 nM in series [8] (MCF7, normoxia, read-out: IC50 MCF7); 2 nM in series [9] (HCT-116, normoxia, read-out: IC50 HCT116); 6 ± 1 nM in [10] (normoxia); 9 ± 2 nM in [11] (SW480, normoxia, read-out: IC50 SW480). Also, the IC50 turned out to be 6 ± 2 nM in series [12] (MRC5, normoxia, read-out: IC50 MRC5); 16.7 ± 9 nM in series [13] (setting [15]); 23.9 ± 7 nM in series [13] (setting [16]); 25.4 ± 9 nM in series [14] (setting [17]); 29.2 ± 12 nM in series [14] (setting [18]). Moreover, the entries for the “HCR (Hypoxia Cytotoxicity Ratio)” value in series [13] and in [14] were 0.4 and 0.6, respectively.

For the compound `COc1cc2c3c(c4cc(OC)c(OC)cc4c2cc1OC)CN1CCC[C@@H]1C3` [(R)-Tylophorine], the IC50 was found to be 101 ± 88 nM in series [8] (MCF7, read-out: IC50 MCF7); 440 ± 36 nM in [9] (HCT-116, read-out: IC50 HCT116); 338 ± 61 nM in series [10]; 1150 ± 244 nM in series [11] (SW480, read-out: IC50 SW480); 95 ± 6 nM in series [12] (MRC5, read-out: IC50 MRC5); 56.4 ± 35 nM in series [13] (setting [15]). Moreover, the concentration for half-maximal inhibition (IC50) was determined as 1710 ± 965 nM in [13] (setting [16]), 161 ± 77 nM in [14] (setting [17]) and 175 ± 78 nM in series [14] (setting [18]). Moreover, the “HCR (Hypoxia Cytotoxicity Ratio)” value in [13] (setting [19]) was determined as 0.6; in [14] (setting [20]), 1.1.

`COc1cc2c3c(c4cc(OC)c(OC)cc4c2cc1OC)CN1CCC[C@H]1C3` [(S)-Tylophorine] returned a solubility in series [1] of 2 µM (≈ 0.787 µg/mL). The compound also showed a logD in [2] of 3.14 ± 0.02. The “Permeability (Papp)” value in series [3] was −5.4 ± 0.17 Log [10^−6 cm/s]. In addition, the fraction unbound in series [4] was 0.061. This compound also had a half-life at 2 μM in series [5] of 2.12 ± 0.05 h. Further, the IC50 in series [6] (HEK293, read-out: IC50 HEK293) is 16 ± 26 nM; in series [7] (CHO-K1, read-out: IC50 CHO-K1), 35 ± 42 nM; in [8] (MCF7, read-out: IC50 MCF7), 62 ± 13 nM; in series [9] (HCT-116, read-out: IC50 HCT116), 85 ± 6 nM; in series [10] it was 202 ± 3 nM; in series [11] (SW480, read-out: IC50 SW480) it was 69 ± 20 nM. Also, the IC50 was found to be 27 ± 2 nM in series [12] (MRC5, read-out: IC50 MRC5); 50.1 ± 18 nM in series [13] (setting [15]); 35.1 ± 15 nM in series [13] (setting [16]); 102 ± 32 nM in [14] (setting [17]); 108 ± 28 nM in series [14] (setting [18]). Besides, the entries for the “HCR (Hypoxia Cytotoxicity Ratio)” value in series [13] (setting [19]) and in [14] (setting [20]) were 0.5 and 1.1, respectively.

With `CN(C)CCCN1c2ccccc2Sc2ccc(Cl)cc21` [Chlorpromazine], in series [3], the “Permeability (Papp)” value was −5.4 ± 0.13 Log [10^−6 cm/s].

As for `CN1CCN(C2=Nc3cc(Cl)ccc3Nc3ccccc32)CC1` [Clozapine], the “Permeability (Papp)” value in series [3] was −5.1 ± 0.12 Log [10^−6 cm/s].

Regarding `Cn1c(COP(=O)(NCCBr)NCCBr)cnc1[N+](=O)[O-]` [Evofosfamide], the “HCR (Hypoxia Cytotoxicity Ratio)” value was 85 in series [13] (setting [19]) and 251 in [14] (setting [20]). The IC50 was found to be 20.1 ± 3 nM in series [13] (setting [15]), 23.9 ± 7 nM in [13] (setting [16]), 17.2 ± 1 nM in series [14] (setting [17]) and 4320 ± 1930 nM in [14] (setting [18]).

The compound `COC(=O)Nc1nc2ccc(C(=O)c3ccccc3)cc2[nH]1` [Mebendazole] registered a logD in series [2] of 3.26 ± 0.01.

`Cc1nccn1CC1CCc2c(c3ccccc3n2C)C1=O` (centres unmarked) [Ondansetron] registered a solubility in series [1] of 96 ± 3 µM (≈ 28.2 µg/mL).

Turning to `CS(=O)(=O)OCCN(CCBr)c1c(C(=O)NCCO)cc([N+](=O)[O-])cc1[N+](=O)[O-]` [PR-104A], the IC50 came to 861 ± 122 nM in series [13] (HCT116, hypoxia, read-out: IC50 (Hypoxia)); 16500 nM in [13] (HCT116, normoxia, read-out: IC50 (Normoxia)); 533 ± 47 nM in series [14] (H460, hypoxia, read-out: IC50 (Hypoxia)); 1340 ± 386 nM in series [14] (H460, normoxia, read-out: IC50 (Normoxia)). Besides, the “HCR (Hypoxia Cytotoxicity Ratio)” value in [13] (setting [19]) came to 10.5; in series [14] (setting [20]), 2.5.

With `CNC(=C[N+](=O)[O-])NCCSCc1ccc(CN(C)C)o1` [Ranitidine], the “Permeability (Papp)” value in series [3] is below −7 Log [10^−6 cm/s].

By solubility is commonly meant the concentration that dissolves in the medium under given conditions. Lower therefore signals a poorly soluble substance. A word on the logD: it is lipophilicity at a set pH, counting ionised and neutral species. Higher therefore signals a more lipophilic compound. One may read the half-life as the time needed for the level to fall by half in the phase considered. For orientation: IC50 means the midpoint of a concentration-inhibition curve.
